Source: US20240041042A1, “1-(PYRIDYL)-5-AZINYLPYRAZOLE DERIVATIVES, AND THEIR USE FOR CONTROL OF UNDESIRED PLANT GROWTH” (Bayer Aktiengesellschaft, priority 2020, published 2024)

Tests used:
Format in all cases: in vivo
[1] = test system: Verconica persica (VERPE); assay: Pre-emergence herbicidal action against VERPE
Method in brief: (§1)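 Dosages of 320 g/ha or less; pre-emergence; WP or EC in aqueous spray, 0.5% additive, 600 l/ha; greenhouse; visual % effect after ~3 wk relative to control pots.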

Lolium rigidum (LOLRI) [2] = assay: Post-emergence herbicidal action against LOLRI
Method in brief: (§2)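 Post-emergence greenhouse spray, one-leaf stage, 600 l/ha water plus 0.5% additive; WP or EC formulations; application rates 320 g/ha or lower. Visual % damage vs untreated controls at ~3 weeks.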

Viola tricolor (VIOTR) [3] = assay: Post-emergence herbicidal action against VIOTR
Method in brief: as §2

Avena fatua (AVEFA) [4] = assay: Pre-emergence herbicidal action against AVEFA; settings: 320 g/ha, visual scoring after about 3 weeks vs untreated controls
Method in brief: as §1

[5] = test system: Echinochloa crus-galli (ECHCG); assay: Post-emergence herbicidal action against ECHCG
Method in brief: as §2

Setaria viridis (SETVI) [6] = assay: Post-emergence herbicidal action against SETVI; settings: dosage 320 g/ha
Method in brief: as §2

Oryza sativa (ORYSA) = settings: crop plant compatibility, 80 g/ha, effect in comparison to untreated controls
Method in brief: (§3)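 Visual rating (% effect vs. untreated plants; 100% = plant death) made about 3 weeks after treatment. Plants had been sprayed at one-leaf stage, 2–3 weeks post-sowing, with aqueous WP/EC preparations containing 0.5% additive, 600 l/ha water volume; a, b, c mark dose levels.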

Setaria viridis (SETVI) [7] = assay: Pre-emergence herbicidal action against SETVI; settings: dosage 320 g/ha
Method in brief: as §1

Lolium rigidum (LOLRI) [8] = assay: Pre-emergence herbicidal action against LOLRI
Method in brief: as §1

[9] = test system: Polygonum convolvulus (POLCO); assay: Pre-emergence herbicidal action against POLCO
Method in brief: as §1

[10] = test system: Echinochloa crus-galli (ECHCG); assay: Pre-emergence herbicidal action against ECHCG; settings: dosage 320 g/ha
Method in brief: as §1

Zea mays (ZEAMX) [11] = settings: pre-emergence, 80 g/ha, crop plant compatibility, in comparison to untreated controls
Description: Seeds of monocotyledonous and dicotyledonous weed plants and crop plants are placed in plastic or organic planting pots and covered with soil. The compounds of the invention, formulated in the form of wettable powders (WP) or as emulsion concentrates (EC), are then applied to the surface of the covering soil as aqueous suspension or emulsion with addition of 0.5% additive at a water application rate equivalent to 600 l/ha. After the treatment, the pots are placed in a greenhouse and kept under good growth conditions for the trial plants. After about 3 weeks, the effect of the preparations is scored visually in comparison with untreated controls as percentages. For example, 100% activity=the plants have died, 0% activity=like control plants.
The observed effects on selected crop plants are reported here in comparison to the untreated controls (values in %). The appendices “a” “b” and “c” give differentiation by dosage used with otherwise the same crop plants tested.

Viola tricolor (VIOTR) [12] = assay: Pre-emergence herbicidal action against VIOTR
Method in brief: as §1

[13] = test system: Abutilon theophrasti (ABUTH); assay: Post-emergence herbicidal action against ABUTH; settings: 320 g/ha, visual rating about 3 weeks after treatment vs untreated controls (100% = plants have died, 0% = like control plants)
Method in brief: as §2

[14] = test system: Amaranthus retroflexus (AMARE); assay: Post-emergence herbicidal action against AMARE
Method in brief: as §2

[15] = test system: Polygonum convolvulus (POLCO); assay: Post-emergence herbicidal action against POLCO
Method in brief: as §2

Avena fatua (AVEFA) [16] = assay: Post-emergence herbicidal action against AVEFA; settings: visual rating about 3 weeks after treatment
Method in brief: as §2

[17] = test system: Verconica persica (VERPE); assay: Post-emergence herbicidal action against VERPE
Method in brief: as §2

[18] = test system: Amaranthus retroflexus (AMARE); assay: Pre-emergence herbicidal action against AMARE; settings: visual scoring after about 3 weeks vs untreated controls
Method in brief: as §1

[19] = test system: Matricaria inodora (MATIN); assay: Pre-emergence herbicidal action against MATIN; settings: dosage 320 g/ha
Method in brief: as §1

[20] = test system: Alopecurus myosuroides (ALOMY); assay: Post-emergence herbicidal action against ALOMY; settings: visual rating about 3 weeks after treatment vs untreated controls (100% = plants have died, 0% = like control plants)
Method in brief: as §2

[21] = test system: Alopecurus myosuroides (ALOMY); assay: Pre-emergence herbicidal action against ALOMY; settings: 320 g/ha; scored visually after about 3 weeks; 100% = plants have died
Method in brief: as §1

[22] = test system: Pharbitis purpurea (PHBPU); assay: Pre-emergence herbicidal action against PHBPU; settings: dosage 320 g/ha
Method in brief: as §1

Zea mays (ZEAMX) [23] = settings: crop plant compatibility, 80 g/ha, effect vs untreated controls
Method in brief: as §3

[24] = test system: Pharbitis purpurea (PHBPU); assay: Post-emergence herbicidal action against PHBPU; settings: dosage 320 g/ha
Method in brief: as §2

## CCOC(=O)[C@@H](C)Oc1nn(-c2ncccc2Cl)c(-c2ccc(F)nc2)c1Br [Example I-27]
[1]; dosage 80 g/ha
  Pre-emergence action against VERPE in %: 80%
[1]; dosage 320 g/ha
  Pre-emergence action against VERPE in %: 100%
Lolium rigidum (LOLRI) [2]; dosage 80 g/ha
  Post-emergence action against LOLRI in %: 90%
Lolium rigidum (LOLRI) [2]; dosage 320 g/ha
  Post-emergence action against LOLRI in %: 90%
Viola tricolor (VIOTR) [3]; 80 g/ha
  Post-emergence action against VIOTR in %: 80%
Viola tricolor (VIOTR) [3]; 320 g/ha
  Post-emergence action against VIOTR in %: 80%
Avena fatua (AVEFA) [4]
  Pre-emergence action against AVEFA in %: 100%
[5]; dosage 80 g/ha
  Post-emergence action against ECHCG in %: 90%
[5]; dosage 320 g/ha
  Post-emergence action against ECHCG in %: 90%
Setaria viridis (SETVI) [6]
  Post-emergence action against SETVI in %: 90%
Oryza sativa (ORYSA)
  Post-emergence action against ORYSA in %: 0%
Setaria viridis (SETVI) [7]
  Pre-emergence action against SETVI in %: 100%
Lolium rigidum (LOLRI) [8]; dosage 80 g/ha
  Pre-emergence action against LOLRI in %: 100%
Lolium rigidum (LOLRI) [8]; dosage 320 g/ha
  Pre-emergence action against LOLRI in %: 100%
[9]; dosage 80 g/ha
  Pre-emergence action against POLCO in %: 90%
[9]; dosage 320 g/ha
  Pre-emergence action against POLCO in %: 100%
[10]
  Pre-emergence action against ECHCG in %: 100%
Zea mays (ZEAMX) [11]
  Pre-emergence action against ZEAMX in %: 20%
Viola tricolor (VIOTR) [12]; 320 g/ha, Viola tricolor
  Pre-emergence action against VIOTR in %: 100%
Viola tricolor (VIOTR) [12]; dosage 80 g/ha
  Pre-emergence action against VIOTR in %: 100%
[13]
  Post-emergence action against ABUTH in %: 90%
[14]; 80 g/ha, visual rating about 3 weeks after treatment vs untreated controls (100% = plants have died, 0% = like control plants)
  Post-emergence action against AMARE in %: 90%
[14]; 320 g/ha, visual rating about 3 weeks after treatment
  Post-emergence action against AMARE in %: 90%
[15]; dosage 80 g/ha
  Post-emergence action against POLCO in %: 80%
[15]; dosage 320 g/ha
  Post-emergence action against POLCO in %: 80%
Avena fatua (AVEFA) [16]; 80 g/ha
  Post-emergence action against AVEFA in %: 100%
Avena fatua (AVEFA) [16]; 320 g/ha
  Post-emergence action against AVEFA in %: 100%
[17]; 320 g/ha, VERPE
  Post-emergence action against VERPE in %: 90%
[17]; dosage 80 g/ha
  Post-emergence action against VERPE in %: 80%
[18]; 80 g/ha
  Pre-emergence action against AMARE in %: 90%
[18]; 320 g/ha
  Pre-emergence action against AMARE in %: 100%
[19]
  Pre-emergence action against MATIN in %: 80%
[20]; 80 g/ha
  Post-emergence action against ALOMY in %: 80%
[20]; 320 g/ha
  Post-emergence action against ALOMY in %: 100%
[21]
  Pre-emergence action against ALOMY: 100%

## COCCOC(=O)COc1nn(-c2ncccc2C(F)(F)F)c(-c2cncc(F)c2)c1Br [Example I-157]
[22]
  Pre-emergence action against PHBPU in %: 90%
[1]; dosage 320 g/ha
  Pre-emergence action against VERPE in %: 90%
[5]; dosage 80 g/ha
  Post-emergence action against ECHCG in %: 80%
[5]; dosage 320 g/ha
  Post-emergence action against ECHCG in %: 90%
Setaria viridis (SETVI) [6]
  Post-emergence action against SETVI in %: 80%
Zea mays (ZEAMX) [23]
  Post-emergence action against ZEAMX in %: 20%
Oryza sativa (ORYSA)
  Post-emergence action against ORYSA in %: 10%
[24]
  Post-emergence action against PHBPU in %: 80%
[9]; dosage 320 g/ha
  Pre-emergence action against POLCO in %: 90%
[10]
  Pre-emergence action against ECHCG in %: 80%
Zea mays (ZEAMX) [11]
  Pre-emergence action against ZEAMX in %: 10%
Viola tricolor (VIOTR) [12]; 320 g/ha, Viola tricolor
  Pre-emergence action against VIOTR in %: 100%
Viola tricolor (VIOTR) [12]; dosage 80 g/ha
  Pre-emergence action against VIOTR in %: 80%
[13]
  Post-emergence action against ABUTH in %: 80%
[17]; 320 g/ha, VERPE
  Post-emergence action against VERPE in %: 90%
[17]; dosage 80 g/ha
  Post-emergence action against VERPE in %: 80%
[21]
  Pre-emergence action against ALOMY: 80%
